PubChem BioAssay AID1963964 (Molecular Pharmacology Branch, DTP, NCI, 2024)
pIC50: −log10 of the molar value.

Tested on: 997726-040-R-J2-PDC tumor spheroids, viability
Assay: Anticancer human tumor 997726-040-R-J2-PDC patient-derived squamous cell lung carcinoma cell line growth inhibition [PI3K]
Conditions: spheroids with HUVEC and MSC; for pIC50: curve of first compound; for viability, T/C: stronger effect = lower value
Procedure, shortened: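 Tumor cells grown as multi-cell spheroids with HUVEC endothelial cells and MSC fibroblast-like stroma were treated with targeted agents combined with inavolisib, alpelisib, duvelisib or copanlisib. Doses fell in half-log steps from near clinical Cmax, else from 10 microM. Viability was measured.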

[1] = second compound 0.0316 µM, first compound 0.000316 µM
[2] = second compound 0.0316 µM, first compound 0.001 µM
[3] = second compound 0.0316 µM, first compound 0.00316 µM
[4] = second compound 0.0316 µM, first compound 0.01 µM
[5] = second compound 0.0316 µM, first compound 0.0316 µM
[6] = second compound 0.0316 µM, first compound 0.1 µM
[7] = second compound 0.1 µM, first compound 0.000316 µM
[8] = second compound 0.1 µM, first compound 0.001 µM
[9] = second compound 0.1 µM, first compound 0.00316 µM
[10] = second compound 0.1 µM, first compound 0.01 µM
[11] = second compound 0.1 µM, first compound 0.0316 µM
[12] = second compound 0.1 µM, first compound 0.1 µM
[13] = second compound 0.316 µM, first compound 0.000316 µM
[14] = second compound 0.316 µM, first compound 0.001 µM
[15] = second compound 0.316 µM, first compound 0.00316 µM
[16] = second compound 0.316 µM, first compound 0.01 µM
[17] = second compound 0.316 µM, first compound 0.0316 µM
[18] = second compound 0.316 µM, first compound 0.1 µM
[19] = second compound 1 µM, first compound 0.000316 µM
[20] = second compound 1 µM, first compound 0.001 µM
[21] = second compound 1 µM, first compound 0.00316 µM
[22] = second compound 1 µM, first compound 0.01 µM
[23] = second compound 1 µM, first compound 0.0316 µM
[24] = second compound 1 µM, first compound 0.1 µM
[25] = second compound 3.16 µM, first compound 0.000316 µM
[26] = second compound 3.16 µM, first compound 0.001 µM
[27] = second compound 3.16 µM, first compound 0.00316 µM
[28] = second compound 3.16 µM, first compound 0.01 µM
[29] = second compound 3.16 µM, first compound 0.0316 µM
[30] = second compound 3.16 µM, first compound 0.1 µM
[31] = second compound 10 µM, first compound 0.000316 µM
[32] = second compound 10 µM, first compound 0.001 µM
[33] = second compound 10 µM, first compound 0.00316 µM
[34] = second compound 10 µM, first compound 0.01 µM
[35] = second compound 10 µM, first compound 0.0316 µM
[36] = second compound 10 µM, first compound 0.1 µM
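Also: spheroids exposed to compounds for seven days before readout.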

`CC(=O)c1c(C)c2cnc(Nc3ccc(N4CCNCC4)cn3)nc2n(C2CCCC2)c1=O` + Cc1nc(NC(=O)N2CCCC2C(N)=O)sc1-c1ccnc(C(C)(C)C(F)(F)F)c1 was tested, and the pIC50 (second compound 0.0316 µM) was < 7.00, the pIC50 (second compound 0.1 µM) was 7.23 and the pIC50 (second compound 0.316 µM) was 7.71. The pIC50 (second compound 1 µM) was > 9.50, the pIC50 (second compound 3.16 µM) was > 9.50 and the pIC50 (second compound 10 µM) was > 9.50. For the same compound, the viability, T/C [1] was 94.4%, the viability, T/C [2] was 90.6% and the viability, T/C [3] was 83.3%. It also gave a viability, T/C [4] of 72.9%, a viability, T/C [5] of 75.5% and a viability, T/C [6] of 51.9%. It also gave a viability, T/C [7] of 81.5%, a viability, T/C [8] of 74.8% and a viability, T/C [9] of 71.9%. It also gave a viability, T/C [10] of 65.2%, a viability, T/C [11] of 59.5% and a viability, T/C [12] of 43.1%. The viability, T/C [13] was 53.4%, the viability, T/C [14] was 59% and the viability, T/C [15] was 52.9%. For the same compound, the viability, T/C [16] was 55.7%, the viability, T/C [17] was 46.4% and the viability, T/C [18] was 34.8%. It also gave a viability, T/C [19] of 41.9%, a viability, T/C [20] of 44.1% and a viability, T/C [21] of 40.1%. For the same compound, the viability, T/C [22] was 35.5%, the viability, T/C [23] was 29.1% and the viability, T/C [24] was 28.4%. It also gave a viability, T/C [25] of 29.6%, a viability, T/C [26] of 30.5% and a viability, T/C [27] of 26.2%. The viability, T/C [28] was 27.7%, the viability, T/C [29] was 27.2% and the viability, T/C [30] was 18.6%. It also gave a viability, T/C [31] of 19.2%, a viability, T/C [32] of 15.7% and a viability, T/C [33] of 13.4%. For the same compound, the viability, T/C [34] was 14.9%, the viability, T/C [35] was 11.8% and the viability, T/C [36] was 10.5%.

In the case of `CC(C)n1nc(-c2ccc3oc(N)nc3c2)c2c(N)ncnc21` + Cc1nc(NC(=O)N2CCCC2C(N)=O)sc1-c1ccnc(C(C)(C)C(F)(F)F)c1, the pIC50 (second compound 0.0316 µM) was 7.77, the pIC50 (second compound 0.1 µM) was 7.97 and the pIC50 (second compound 0.316 µM) was 8.45. For the same compound, the pIC50 (second compound 1 µM) was > 9.50, the pIC50 (second compound 3.16 µM) was > 9.50 and the pIC50 (second compound 10 µM) was > 9.50. It also gave a viability, T/C [1] of 80.4%, a viability, T/C [2] of 80% and a viability, T/C [3] of 66.5%. The viability, T/C [4] was 62%, the viability, T/C [5] was 38.8% and the viability, T/C [6] was 7.7%. The viability, T/C [7] was 84.9%, the viability, T/C [8] was 71.1% and the viability, T/C [9] was 64.4%. For the same compound, the viability, T/C [10] was 52.8%, the viability, T/C [11] was 33.6% and the viability, T/C [12] was 7.57%. The viability, T/C [13] was 62%, the viability, T/C [14] was 61.8% and the viability, T/C [15] was 51.1%. It also gave a viability, T/C [16] of 36.7%, a viability, T/C [17] of 28.6% and a viability, T/C [18] of 6.37%. The viability, T/C [19] was 43.7%, the viability, T/C [20] was 38.9% and the viability, T/C [21] was 38.3%. For the same compound, the viability, T/C [22] was 32.7%, the viability, T/C [23] was 21.3% and the viability, T/C [24] was 3.77%. The viability, T/C [25] was 32.4%, the viability, T/C [26] was 31.8% and the viability, T/C [27] was 27.9%. The viability, T/C [28] was 24.5%, the viability, T/C [29] was 9.73% and the viability, T/C [30] was 2.15%. The viability, T/C [31] was 21%, the viability, T/C [32] was 11.3% and the viability, T/C [33] was 10.4%. For the same compound, the viability, T/C [34] was 8.32%, the viability, T/C [35] was 4.53% and the viability, T/C [36] was 1.59%.
